Measurements from patent US20060105941A1, “Mixed antibiotic codrugs” (ALLERGAN, INC., priority 2004, published 2006).

Columns and labels:
bacterial conjunctivitis = assay: Eye drop given to a patient with bacterial conjunctivitis; type: in vivo; conditions: patient suffering from bacterial conjunctivitis, over a period of two weeks
Procedure: An eye drop containing compound 1 is administered to a patient suffering from bacterial conjunctivitis over a period of two weeks.

corneal ulcer = assay: Eye drop given to a patient with corneal ulcer; type: in vivo; conditions: patient suffering from corneal ulcer, over a period of two weeks
Procedure: An eye drop containing compound 1 is administered to a patient suffering from corneal ulcer over a period of two weeks.

Q: With `COc1c(N2CCN[C@H](C)C2)c(F)cc2c(=O)c(C(=O)OC(C)C(=O)Oc3cccc4c3C(=O)C3=C(O)C5(O)C(=O)C(C(N)=O)=C(O)C(N(C)C)C5CC3C4(C)O)cn(C3CC3)c12` (stereo partly shown) [Compound 1] as the compound, how does the “bacterial infection after the complete treatment” value (bacterial conjunctivitis) read?
A: eliminated

Q: And the “symptoms after the complete treatment” value (bacterial conjunctivitis)?
A: relief of symptoms is experienced

Q: And the “bacterial infection after the complete treatment” value (corneal ulcer)?
A: eliminated

Q: What about the “symptoms after the complete treatment” value (corneal ulcer) of the same compound?
A: relief of symptoms is experienced
